Test results from ChEMBL document CHEMBL5338747, “Discovery of Quaternized Pyridine-Thiazole-Pleuromutilin Derivatives with Broad-Spectrum Antibacterial and Potent Anti-MRSA Activity” (J Med Chem, 2023).
In brackets after ≈: the same amount, converted by molar mass.

Experiments:
Salmonella enterica = test: Antibacterial activity against Salmonella enterica ATCC 14028 assessed as inhibition of bacterial growth incubated for 24 hrs by broth microdilution method; assay type: functional
[1] = tested on: Staphylococcus epidermidis; test: Antibacterial activity against methicillin-resistant Staphylococcus epidermidis ATCC 51625 assessed as inhibition of bacterial growth incubated for 24 hrs by broth microdilution method; assay type: functional
Staphylococcus aureus [2] = test: Antibacterial activity against methicillin-resistant Staphylococcus aureus ATCC 33591 assessed as inhibition of bacterial growth incubated for 24 hrs by broth microdilution method; assay type: functional
Escherichia coli [3] = test: Antibacterial activity against Escherichia coli ATCC 25922 assessed as inhibition of bacterial growth incubated for 24 hrs by broth microdilution method; assay type: functional
Staphylococcus aureus [4] = test: Antibacterial activity against […] assessed as inhibition of bacterial growth incubated for 24 hrs by broth microdilution method; assay type: functional; conditions: ATCC 29213
[5] = Aqueous solubility of the compound in physiological saline measured after 12 hrs by UV spectrophotometric analysis; assay type: physicochemical
Acinetobacter baumannii = test: Antibacterial activity against Acinetobacter baumannii ATCC 19606 assessed as inhibition of bacterial growth incubated for 24 hrs by broth microdilution method; assay type: functional
Escherichia coli [6] = test: Antibacterial activity against Escherichia coli CMCC 44103 assessed as inhibition of bacterial growth incubated for 24 hrs by broth microdilution method; assay type: functional
Staphylococcus aureus [7] = test: Antibacterial activity against methicillin-resistant Staphylococcus aureus ATCC 43300 assessed as inhibition of bacterial growth incubated for 24 hrs by broth microdilution method; assay type: functional

| Compound | MIC (Salmonella enterica) [µg/mL] | MIC [1] [µg/mL] | MIC (Staphylococcus aureus [2]) [µg/mL] | MIC (Escherichia coli [3]) [µg/mL] | MIC (Staphylococcus aureus [4]) [µg/mL] | solubility at 12 h [5] [µM] | MIC (Acinetobacter baumannii) [µg/mL] | MIC (Escherichia coli [6]) [µg/mL] | MIC (Staphylococcus aureus [7]) [µg/mL] |
| --- | --- | --- | --- | --- | --- | --- | --- | --- | --- |
| C=C[C@]1(C)C[C@@H](OC(=O)CSc2nc(-c3cc[n+](CCCC)cc3)cs2)[C@]2(C)[C@H](C)CC[C@]3(CCC(=O)[C@H]32)[C@@H](C)[C@@H]1O.[Br-] | 2 | 4 | 2 | 16 | 4 | 672 | 16 | 4 | 4 |
| C=C[C@]1(C)C[C@@H](OC(=O)CSc2nc(-c3cc[n+](Cc4cc(OC)cc(OC)c4)cc3)cs2)[C@]2(C)[C@H](C)CC[C@]3(CCC(=O)[C@H]32)[C@@H](C)[C@@H]1O.[Br-] | 16 | 128 | 64 | 32 | 128 | 912 | 8 | 8 | 128 |
| C=C[C@]1(C)C[C@@H](OC(=O)CSc2nc(-c3cc[n+](Cc4cc(F)cc(F)c4)cc3)cs2)[C@]2(C)[C@H](C)CC[C@]3(CCC(=O)[C@H]32)[C@@H](C)[C@@H]1O.[Br-] | 16 | 64 | 64 | 16 | 64 | 803 | 8 | 32 | 64 |
| C=C[C@]1(C)C[C@@H](OC(=O)CSc2nc(-c3cc[n+](Cc4ccc(F)cc4)cc3)cs2)[C@]2(C)[C@H](C)CC[C@]3(CCC(=O)[C@H]32)[C@@H](C)[C@@H]1O.[Br-] | 1 | 4 | 2 | 2 | 1 | 807 | 16 | 1 | 8 |
| C=C[C@]1(C)C[C@@H](OC(=O)CSc2nc(-c3cc[n+](Cc4ccc(C(F)(F)F)cc4)cc3)cs2)[C@]2(C)[C@H](C)CC[C@]3(CCC(=O)[C@H]32)[C@@H](C)[C@@H]1O.[Br-] | 2 | 2 | 2 | 1 | 0.25 | 899 | 2 | 2 | 4 |
| C=C[C@]1(C)C[C@@H](OC(=O)CSc2nc(-c3ccncc3)cs2)[C@]2(C)[C@H](C)CC[C@]3(CCC(=O)[C@H]32)[C@@H](C)[C@@H]1O | 32 (≈ 57.7 µM) | 32 (≈ 57.7 µM) | 16 (≈ 28.8 µM) | 64 (≈ 115 µM) | 8 (≈ 14.4 µM) |  | 64 (≈ 115 µM) | 32 (≈ 57.7 µM) | 32 (≈ 57.7 µM) |
| Br.C=C[C@]1(C)C[C@@H](OC(=O)CSc2nnc(-c3cc[n+](Cc4ccc([N+](=O)[O-])cc4)cc3)o2)[C@]2(C)[C@H](C)CC[C@]3(CCC(=O)[C@H]32)[C@@H](C)[C@@H]1O | 128 | 32 | 32 | > 128 | 32 |  | 64 | 128 | 64 |
| C=C[C@]1(C)C[C@@H](OC(=O)CSc2nc(-c3cc[n+](Cc4ccsc4)cc3)cs2)[C@]2(C)[C@H](C)CC[C@]3(CCC(=O)[C@H]32)[C@@H](C)[C@@H]1O.[Br-] | 2 | 1 | 1 | 1 | 0.25 | 702 | 8 | 0.5 | 0.5 |
| C=C[C@]1(C)C[C@@H](OC(=O)CSc2nc(-c3cc[n+](CCCCCCCCCCCCCCCC)cc3)cs2)[C@]2(C)[C@H](C)CC[C@]3(CCC(=O)[C@H]32)[C@@H](C)[C@@H]1O.[Br-] | > 128 | > 128 | > 128 | > 128 | 64 | 187 | > 128 | > 128 | 64 |
| C=C[C@]1(C)C[C@@H](OC(=O)CSc2nnc(-c3cc[n+](Cc4ccc(C)cc4)cc3)o2)[C@]2(C)[C@H](C)CC[C@]3(CCC(=O)[C@H]32)[C@@H](C)[C@@H]1O.[Br-] | 32 | 64 | 16 | 32 | 4 |  | 128 | 64 | 16 |
| C=C[C@]1(C)C[C@@H](OC(=O)CSc2nnc(-c3cc[n+](Cc4ccc(C#N)cc4)cc3)o2)[C@]2(C)[C@H](C)CC[C@]3(CCC(=O)[C@H]32)[C@@H](C)[C@@H]1O.[Br-] | 32 | 64 | 32 | 64 | 16 |  | > 128 | 64 | 16 |
| C=C[C@]1(C)C[C@@H](OC(=O)CSc2nc(-c3cc[n+](Cc4ccc(-c5ccccc5)cc4)cc3)cs2)[C@]2(C)[C@H](C)CC[C@]3(CCC(=O)[C@H]32)[C@@H](C)[C@@H]1O.[Br-] | 2 | 2 | 2 | 1 | 0.5 | 271 | 2 | 1 | 1 |
| C=C[C@]1(C)C[C@@H](OC(=O)CSc2nc(-c3cc[n+](Cc4ccccc4)cc3)cs2)[C@]2(C)[C@H](C)CC[C@]3(CCC(=O)[C@H]32)[C@@H](C)[C@@H]1O.[Br-] |  | 4 | 1 |  | 0.125 | 871 | 4 | 0.25 |  |
| C=C[C@]1(C)C[C@@H](OC(=O)CSc2nc(-c3cc[n+](Cc4ccc(Br)cc4)cc3)cs2)[C@]2(C)[C@H](C)CC[C@]3(CCC(=O)[C@H]32)[C@@H](C)[C@@H]1O.[Br-] | 4 | 8 | 2 | 2 | 0.5 | 760 | 2 | 0.5 | 1 |
| C=C[C@]1(C)C[C@@H](OC(=O)CSc2nc(-c3cc[n+](CCCCCCCCCC)cc3)cs2)[C@]2(C)[C@H](C)CC[C@]3(CCC(=O)[C@H]32)[C@@H](C)[C@@H]1O.[Br-] | 1 | 2 | 1 | 2 | 0.25 | 203 | 4 | 4 | 2 |
| C=C[C@]1(C)C[C@@H](OC(=O)CSc2nnc(-c3ccncc3)o2)[C@]2(C)[C@H](C)CC[C@]3(CCC(=O)[C@H]32)[C@@H](C)[C@@H]1O | 64 (≈ 119 µM) | 128 (≈ 237 µM) | 64 (≈ 119 µM) | > 128 | 16 (≈ 29.6 µM) |  | 128 (≈ 237 µM) | 128 (≈ 237 µM) | 128 (≈ 237 µM) |
| C=C[C@]1(C)C[C@@H](OC(=O)CSc2nc(-c3cc[n+](Cc4ccc5ccccc5c4)cc3)cs2)[C@]2(C)[C@H](C)CC[C@]3(CCC(=O)[C@H]32)[C@@H](C)[C@@H]1O.[Br-] | 4 | 4 | 16 | 16 | 4 | 483 | 16 | 8 | 4 |
| Br.C=C[C@]1(C)C[C@@H](OC(=O)CSc2nc(-c3cc[n+](Cc4ccc([N+](=O)[O-])o4)cc3)cs2)[C@]2(C)[C@H](C)CC[C@]3(CCC(=O)[C@H]32)[C@@H](C)[C@@H]1O | 32 | 8 | 32 | 8 | 4 | 1650 | 16 | 64 | 8 |
| C=C[C@]1(C)C[C@@H](OC(=O)CSc2nc(-c3cc[n+](Cc4ccc(OC(F)(F)F)cc4)cc3)cs2)[C@]2(C)[C@H](C)CC[C@]3(CCC(=O)[C@H]32)[C@@H](C)[C@@H]1O.[Br-] | 4 | 4 | 2 | 2 | 2 | 537 | 8 | 32 | 2 |
| C=C[C@]1(C)C[C@@H](OC(=O)CSc2nc(-c3cc[n+](Cc4ccc(C(C)(C)C)cc4)cc3)cs2)[C@]2(C)[C@H](C)CC[C@]3(CCC(=O)[C@H]32)[C@@H](C)[C@@H]1O.[Br-] | 2 | 2 | 1 | 2 | 0.25 | 306 | 2 | 2 | 2 |
| C=C[C@]1(C)C[C@@H](OC(=O)CSc2nc(-c3cc[n+](Cc4ccc(Cl)cc4)cc3)cs2)[C@]2(C)[C@H](C)CC[C@]3(CCC(=O)[C@H]32)[C@@H](C)[C@@H]1O.[Br-] | 2 | 8 | 2 | 0.5 | 0.125 | 649 | 2 | 1 | 2 |
| C=C[C@]1(C)C[C@@H](OC(=O)CSc2nc(-c3cc[n+](Cc4ccc(C#N)cc4)cc3)cs2)[C@]2(C)[C@H](C)CC[C@]3(CCC(=O)[C@H]32)[C@@H](C)[C@@H]1O.[Br-] | 32 | 16 | 64 | 2 | 0.125 | 683 | 32 | 8 | 2 |
| C=C[C@]1(C)C[C@@H](OC(=O)CSc2nnc(-c3cc[n+](Cc4ccccc4)cc3)o2)[C@]2(C)[C@H](C)CC[C@]3(CCC(=O)[C@H]32)[C@@H](C)[C@@H]1O.[Br-] | 32 | 128 | 64 | 128 | 16 |  | 128 | 64 | 32 |
